Test results as given in patent US3988450A, “Cephalosporins” (priority 1974, dated 1976).
Values after ≈ are worked out from the molar mass of the structure shown. Read-outs that look alike come from different tables or passages of the source.

Legend:
[1] = Serum concentrations in mice after sub-cutaneous injection, microbiological assay; format: in vivo; details: mouse, sc, 50 mg/kg sub-cutaneous, average, read-out: Serum concentrations at time after dosing; for concentration at 0.5 h: 30 min; for concentration at 1 h: 60 min
Procedure: Each compound was injected sub-cutaneously into groups of mice at a dose of 50 mg/kg, and serum samples were taken at timed intervals thereafter and assayed microbiologically for their antibiotic content using the appropriate compound as standard.

[2] = general knowledge; cited from earlier work
Proteus mirabilis C977 = test: MIC on nutrient agar; format: cell-based
Description: (§1) The minimum inhibitory concentrations of this compound required to inhibit the growth of various bacteria on nutrient agar are tabulated below: […]

Klebsiella aerogenes A = test: MIC on nutrient agar; format: cell-based
Description: as §1

B. subtilis = test: MIC on nutrient agar; format: cell-based; details: Bacillus subtilis
Description: as §1

E. coli JT1 = test: MIC on nutrient agar; format: cell-based; details: Escherichia coli
Description: as §1

Staph. aureus Oxford = test: MIC on nutrient agar; format: cell-based; details: Staphylococcus aureus
Description: as §1

β-Haemolytic Strep. CN10 = test: MIC on nutrient agar; format: cell-based
Description: as §1

P. mirabilis 889 = test: MIC on nutrient agar; format: cell-based; details: Proteus mirabilis; P. mirabilis 889, nutrient agar
Description: as §1

Shigella sonnei = test: MIC on nutrient agar; format: cell-based
Description: as §1

Enterobacter cloacae N1 = test: MIC on nutrient agar; format: cell-based
Description: as §1

Serratia marcescens US32 = test: MIC on nutrient agar; format: cell-based
Description: as §1

Staph. aureus Russell = test: MIC on nutrient agar; format: cell-based; details: Staphylococcus aureus
Salmonella typhi = test: MIC on nutrient agar; format: cell-based; details: Salmonella enterica
Description: as §1

P. morganii = test: MIC on nutrient agar; format: cell-based; details: Morganella morganii
Description: as §1

P. mirabilis 899 = test: MIC on nutrient agar; format: cell-based; details: Proteus mirabilis; P. mirabilis 899, nutrient agar
[3] = E. coli JT1, nutrient agar, read-out: MIC

Compound | MIC (Proteus mirabilis C977) [µg/mL] | MIC (Klebsiella aerogenes A) [µg/mL] | MIC (B. subtilis) [µg/mL] | MIC (E. coli JT1; [3]) [µg/mL] | MIC (Staph. aureus Oxford) [µg/mL] | MIC (β-Haemolytic Strep. CN10) [µg/mL] | MIC (Shigella sonnei) [µg/mL] | MIC (Staph. aureus Russell) [µg/mL] | MIC (Salmonella typhi) [µg/mL] | further results
Cc1nnc(SCC2=C(C(=O)O)N3C(=O)[C@@H](NC(=O)Cn4cnnn4)[C@H]3SC2)s1 [Cefazolin, reference compound] | – | – | – | – | – | – | – | – | – | concentration at 10 min [1]: 45000 ng/mL; concentration at 20 min [1]: 37000 ng/mL; concentration at 0.5 h [1]: 21000 ng/mL; concentration at 1 h [1]: < 4000 ng/mL; concentration at 2 h [1]: < 4000 ng/mL; concentration at 4 h [1]: < 4000 ng/mL; duration of action (regarded as) [2]: relatively `long-acting` cephalosporin
N[C@@H](C(=O)N[C@@H]1C(=O)N2C(C(=O)O)=C(Cc3ccccc3C(=O)O)CS[C@H]12)c1ccccc1 [LV, 3-(o-Carboxybenzyl)-7β-(D-α-phenylglycyl)aminoceph-3-em-4-carboxylic acid] | 5 (≈ 10.7 µM) | 5 (≈ 10.7 µM) | 1.25 (≈ 2.67 µM) | 12.5 (≈ 26.7 µM) | 5 (≈ 10.7 µM) | 5 (≈ 10.7 µM) | – | – | – | MIC (P. mirabilis 889): 5 µg/mL (≈ 10.7 µM)
CN(N=Cc1ccccc1)C(=O)N[C@@H](C(=O)N[C@@H]1C(=O)N2C(C(=O)O)=C(Cc3ccccc3C(=O)O)CS[C@H]12)c1ccccc1 [LVIII, 3-(o-Carboxybenzyl)-7β-[D-α-(3-benzylideneimino-3-methylureido)-phenylacetamido]-ceph-3-em-4-carboxylic acid] | – | – | – | 8 (≈ 12.7 µM) | 8 (≈ 12.7 µM) | 0.2 (≈ 0.319 µM) | 4 (≈ 6.37 µM) | – | – | MIC (Enterobacter cloacae N1): 8 µg/mL (≈ 12.7 µM)
CN(C(=O)C=Cc1ccccc1)C(=O)N[C@@H](C(=O)N[C@@H]1C(=O)N2C(C(=O)O)=C(Cc3ccccc3C(=O)O)CS[C@H]12)c1ccccc1 [LVIX, 3-(o-Carboxybenzyl)-7β-[D-α-(3-cinnamoul-3-methylureido)phenylacetamido]ceph-3-em-4-carboxylic acid] | – | – | – | – | 4 (≈ 6.11 µM) | 0.25 (≈ 0.382 µM) | 4 (≈ 6.11 µM) | – | – | MIC (Serratia marcescens US32): 4 µg/mL (≈ 6.11 µM)
N[C@@H](C(=O)N[C@@H]1C(=O)N2C(C(=O)O)=C(Cc3ccc(C(=O)O)cc3)CS[C@H]12)c1ccccc1.O=C(O)C(F)(F)F [XIII, 3-(p-Carboxybenzyl)-7β-(D-α-phenylglycyl)amino-ceph-3-em-4-carboxylic acid trifluoroacetic acid salt] | 1.25 | – | 1.25 | 12.5 | 0.5 | 0.5 | 5 | 2.5 | 0.5 | –
CN(N=Cc1ccccc1)C(=O)N[C@@H](C(=O)N[C@@H]1C(=O)N2C(C(=O)O)=C(Cc3ccc(C(=O)O)cc3)CS[C@H]12)c1ccccc1 [XIX, 3-(p-Carboxybenzyl)-7β-[D-α-(3-benzylideneimino-3-methylureido)phenylacetamido]ceph-3-em-4-carboxylic acid] | 5 (≈ 7.97 µM) | 5 (≈ 7.97 µM) | – | 12.5 (≈ 19.9 µM) | 1.25 (≈ 1.99 µM) | 0.12 (≈ 0.191 µM) | 2.5 (≈ 3.98 µM) | – | 5 (≈ 7.97 µM) | MIC (P. morganii): 12.5 µg/mL (≈ 19.9 µM); MIC (Enterobacter cloacae N1): 5 µg/mL (≈ 7.97 µM); MIC (Serratia marcescens US32): 12.5 µg/mL (≈ 19.9 µM)
N[C@@H](C(=O)N[C@@H]1C(=O)N2C(C(=O)O)=C(Cc3cccc(C(=O)O)c3)CS[C@H]12)c1ccccc1 [XLI, 3-(m-Carboxybenzyl)-7β-(D-α-phenylglycyl)amino-ceph-3-em-4-carboxylic acid] | 2.5 (≈ 5.35 µM) | 2.5 (≈ 5.35 µM) | 0.25 (≈ 0.535 µM) | 12.5 (≈ 26.7 µM) | 0.25 (≈ 0.535 µM) | 0.12 (≈ 0.257 µM) | – | 1.25 (≈ 2.67 µM) | 2.5 (≈ 5.35 µM) | –
O=C(O)C1=C(Cc2cccc(C(=O)O)c2)CS[C@@H]2[C@H](NC(=O)[C@H](O)c3ccccc3)C(=O)N12 [XLIII] | 8 (≈ 17.1 µM) | – | 0.5 (≈ 1.07 µM) | – | 0.5 (≈ 1.07 µM) | 2 (≈ 4.27 µM) | – | – | 8 (≈ 17.1 µM) | –
N[C@@H](C(=O)N[C@@H]1C(=O)N2C(C(=O)O)=C(Cc3ccc(C(=O)O)cc3)CS[C@H]12)c1ccc(O)cc1.O=C(O)C(F)(F)F [XVII, 3-(p-carboxybenzyl)-7β-(D-α-p-hydroxyphenylglycyl)aminoceph-3-em-4-carboxylic acid trifluoroacetic acid salt] | 2.5 | – | 5 | – | 2.5 | 0.5 | – | 5 | 5 | –
O=C(O)C1=C(Cc2ccc(C(=O)O)cc2)CS[C@@H]2[C@H](NC(=O)[C@H](O)c3ccccc3)C(=O)N12 [XV] | 0.5 (≈ 1.07 µM) | – | 0.5 (≈ 1.07 µM) | 5 (≈ 10.7 µM) | 0.25 (≈ 0.534 µM) | 0.25 (≈ 0.534 µM) | – | – | 5 (≈ 10.7 µM) | –
CN(C(=O)C=Cc1ccccc1)C(=O)N[C@@H](C(=O)N[C@@H]1C(=O)N2C(C(=O)O)=C(Cc3ccc(C(=O)O)cc3)CS[C@H]12)c1ccccc1 [XXI, 3-(p-Carboxybenzyl)-7β-[D-α-(3-cinnamoyl-3-methylureido)phenylacetamido]ceph-3-em-4-carboxylic acid] | 5 (≈ 7.64 µM) | 5 (≈ 7.64 µM) | – | – | 2.5 (≈ 3.82 µM) | 0.12 (≈ 0.183 µM) | 5 (≈ 7.64 µM) | – | 12.5 (≈ 19.1 µM) | MIC (Enterobacter cloacae N1): 5 µg/mL (≈ 7.64 µM); MIC (E. coli JT1; JT1): 12.5 µg/mL (≈ 19.1 µM); MIC (Serratia marcescens US32): 5 µg/mL (≈ 7.64 µM)
NC(=O)N[C@H](Cc1c[nH]c2ccccc12)C(=O)N[C@@H](C(=O)N[C@@H]1C(=O)N2C(C(=O)O)=C(Cc3ccc(C(=O)O)cc3)CS[C@H]12)c1ccccc1 [XXVI] | 12.5 (≈ 17.9 µM) | 5 (≈ 7.18 µM) | – | 5 (≈ 7.18 µM) | 0.5 (≈ 0.718 µM) | – | 5 (≈ 7.18 µM) | 5 (≈ 7.18 µM) | 5 (≈ 7.18 µM) | –
O=C(Cc1cccs1)N[C@@H]1C(=O)N2C(C(=O)O)=C(Cc3ccc(C(=O)O)cc3)CS[C@H]12 [XXX, 7β-(2-Thienylacetamido)-3-(p-carboxybenzyl)ceph-3-em-4-carboxylic acid] | 5 (≈ 10.9 µM) | – | 1.2 (≈ 2.62 µM) | – | 0.1 (≈ 0.218 µM) | 0.5 (≈ 1.09 µM) | – | 5 (≈ 10.9 µM) | 5 (≈ 10.9 µM) | MIC (P. mirabilis 899): 2.5 µg/mL (≈ 5.45 µM)
N[C@@H](C(=O)N[C@@H]1C(=O)N2C(C(=O)O)=C(Cc3cccc(C(=O)O)c3)CS[C@H]12)c1ccccc1 [m-carboxy isomer, 3-(m-Carboxybenzyl)-7β-(D-α-phenylglycyl)amino-ceph-3-em-4-carboxylic acid] | – | – | – | – | – | – | – | – | – | concentration at 10 min [1]: 84000 ng/mL; concentration at 20 min [1]: 64000 ng/mL; concentration at 0.5 h [1]: 50000 ng/mL; concentration at 1 h [1]: 26000 ng/mL; concentration at 2 h [1]: 14000 ng/mL; concentration at 4 h [1]: 1600 ng/mL
N[C@@H](C(=O)N[C@@H]1C(=O)N2C(C(=O)O)=C(Cc3ccccc3C(=O)O)CS[C@H]12)c1ccccc1 [o-carboxy isomer, 3-(o-Carboxybenzyl)-7β-(D-α-phenylglycyl)aminoceph-3-em-4-carboxylic acid] | – | – | – | – | – | – | – | – | – | concentration at 10 min [1]: 63000 ng/mL; concentration at 20 min [1]: 66000 ng/mL; concentration at 0.5 h [1]: 58000 ng/mL; concentration at 1 h [1]: 49000 ng/mL; concentration at 2 h [1]: 41000 ng/mL; concentration at 4 h [1]: 31000 ng/mL
N[C@@H](C(=O)N[C@@H]1C(=O)N2C(C(=O)O)=C(Cc3ccc(C(=O)O)cc3)CS[C@H]12)c1ccccc1 [p-carboxy isomer, 3-(p-Carboxybenzyl)-7β-(D-α-phenylglycyl)amino-ceph-3-em-4-carboxylic acid] | – | – | – | – | – | – | – | – | – | concentration at 10 min [1]: 75000 ng/mL; concentration at 20 min [1]: 87000 ng/mL; concentration at 0.5 h [1]: 69000 ng/mL; concentration at 1 h [1]: 48000 ng/mL; concentration at 2 h [1]: 22000 ng/mL; concentration at 4 h [1]: 9300 ng/mL
